USRE48335E1, “Polymyxin derivatives as antimicrobial compounds” (priority 2014, dated 2020)
≈ marks a conversion by molar mass, not a printed value. Positions of bridges follow the written chain, without caps; N, C: chain ends. Non-standard residues stand in square brackets, D forms with d. Residues, ends and D or L forms follow the SMILES beside them. *: point of attachment. Benzoyl(2,3-Cl2) = O=C(c1cccc(Cl)c1Cl)*; X23 = O=C(c1c(Cl)cc(Cl)cc1Cl)*; X1 = CC[C@H](C)CCCCC(=O)*; Dab = NCC[C@H](N)C(=O)O; Abu = CC[C@H](N)C(=O)O; Dap = NC[C@H](N)C(=O)O; PhAc = O=C(Cc1ccccc1)*

Legend:
Acinetobacter baumannii = settings: for Minimum inhibitory concentration, Ab A ATCC 17978: Acinetobacter baumannii ATCC 17978; for Minimum inhibitory concentration, Ab A ATCC 17978 / Minimum inhibitory concentration, Ab ATCC 19606 / Minimum inhibitory concentration, Ab FADDI-AB034: broth microdilution in CAMHB; for Minimum inhibitory concentration, Ab ATCC 19606: Acinetobacter baumannii ATCC 19606; for Minimum inhibitory concentration, Ab FADDI-AB034: Acinetobacter baumannii FADDI-AB034
In short: (§1)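 Read-out is the MIC, obtained by broth microdilution under CLSI guidance. Lipopeptides (TFA salt form) were diluted in cation-adjusted Mueller-Hinton broth, with polymyxin B sulphate run alongside as control.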

Enterobacter cloacae = settings: for Minimum inhibitory concentration, Ec FADDI-EC001: Enterobacter cloacae FADDI-EC001; for Minimum inhibitory concentration, Ec FADDI-EC001 / Minimum inhibitory concentration, Ec FADDI-EC003 / Minimum inhibitory concentration, Ec FADDI-EC006: broth microdilution in CAMHB; for Minimum inhibitory concentration, Ec FADDI-EC003: Enterobacter cloacae FADDI-EC003; for Minimum inhibitory concentration, Ec FADDI-EC006: Enterobacter cloacae FADDI-EC006
In short: as §1

Pseudomonas aeruginosa = settings: for Minimum inhibitory concentration, Pa ATCC 27853: Pseudomonas aeruginosa ATCC 27853; for Minimum inhibitory concentration, Pa ATCC 27853 / Minimum inhibitory concentration, Pa FADDI-PA022 / Minimum inhibitory concentration, Pa FADDI-PA025: broth microdilution in CAMHB; for Minimum inhibitory concentration, Pa FADDI-PA022: Pseudomonas aeruginosa FADDI-PA022; for Minimum inhibitory concentration, Pa FADDI-PA025: Pseudomonas aeruginosa FADDI-PA025
In short: as §1

[1] = Nephrotoxicity in a mouse model (kidney histology score); assay type: in vivo; settings: mice, subcutaneous 12 mg base/kg, 6 doses in one day every 2 h; for Max Overall Kidney Histology Score: kidney ~20 h after last dose, product of percentage score and grade score; for Max Kidney Histology Score: semiquantitative score (SQS) 0 to +5
Procedure: PMB sulphate (Batch 20120204) and colistin sulphate (Batch 20120719) were supplied by Betapharma (Shanghai Co., Ltd, China). […] At ˜20 h after the last dose, mice were euthanised by inhalation of an overdose of isoflurane. […] The formalin-fixed kidneys were then sent to the Australian Phenomics Network-Histopathology and Organ Pathology (The University of Melbourne, Parkville, VIC, Australia) for histological examination. The samples were examined by a pathologist who was blind to the treatment groups. Lesions were rated as follows: mild acute tubular damage with tubular dilation, prominent nuclei and a few pale […] tubular casts (Grade 1); severe acute tubular damage with necrosis of tubular epithelial cells and numerous tubular casts (Grade 2); acute cortical necrosis/infarction of tubules and glomeruli with or without papillary necrosis (Grade 3). […] The overall kidney histology score was calculated as the product of percentage score and grade score. […] These scores were assigned as follows: […] SQS+3=moderate damage (overall score, 30 to <45); […]

Klebsiella pneumoniae = test system: Klebsiella pneumoniae
In short: as §1

A. baumannii ATCC 19606 = assay: In vivo efficacy in mouse blood infection model (neutropenic Swiss mice); settings: compound, free base 4 mg/kg intravenously 2 h after inoculation, blood at 4 h
In short: (§2)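 Neutropenic Swiss mice (cyclophosphamide 150 mg/kg day −4, 100 mg/kg day −1, i.p.) infected i.v. with early log-phase bacteria; 4 mg/kg free base i.v. given 2 h post-inoculation. Blood CFU by cardiac puncture 4 h post-dose; Δlog10 CFU/mL treated versus saline controls.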

[2] = test system: K. pneumoniae FADDI-KP032; assay: as above; settings: compound, free base 4 mg/kg intravenously 2 h after inoculation, blood at 4 h
In short: as §2

P. aeruginosa ATCC 27853 = assay: as above; settings: compound, free base 4 mg/kg intravenously 2 h after inoculation, blood at 4 h
In short: as §2

SMILES: CC[C@@H]1NC(=O)[C@@H](CC(C)C)NC(=O)[C@H](CCN)NC(=O)[C@@H](NC(=O)[C@H](CN)NC(=O)[C@@H](NC(=O)[C@H](CCN)NC(=O)Cc2ccccc2)[C@@H](C)O)CCNC(=O)[C@H]([C@@H](C)O)NC(=O)[C@H](CCN)NC(=O)[C@H](CCN)NC1=O [Compound 78] (PhAc-[Dab]T[Dap][Dab][Dab][dL][Abu][Dab][Dab]T; lactam 4-C)
- Minimum inhibitory concentration, Ab A ATCC 17978 (Acinetobacter baumannii): 2 µg/mL (≈ 1.81 µM)
- Minimum inhibitory concentration, Ab ATCC 19606 (Acinetobacter baumannii): 4 µg/mL (≈ 3.62 µM)
- Minimum inhibitory concentration, Ab FADDI-AB034 (Acinetobacter baumannii): 2 µg/mL (≈ 1.81 µM)
- Minimum inhibitory concentration, Ec FADDI-EC001 (Enterobacter cloacae): 0.25 µg/mL (≈ 0.226 µM)
- Minimum inhibitory concentration, Ec FADDI-EC003 (Enterobacter cloacae): 0.25 µg/mL (≈ 0.226 µM)
- Minimum inhibitory concentration, Ec FADDI-EC006 (Enterobacter cloacae): 0.5 µg/mL (≈ 0.452 µM)
- Minimum inhibitory concentration, Pa ATCC 27853 (Pseudomonas aeruginosa): 1 µg/mL (≈ 0.905 µM)
- Minimum inhibitory concentration, Pa FADDI-PA022 (Pseudomonas aeruginosa): 0.5 µg/mL (≈ 0.452 µM)
- Minimum inhibitory concentration, Pa FADDI-PA025 (Pseudomonas aeruginosa): 4 µg/mL (≈ 3.62 µM)
- Max Overall Kidney Histology Score [1]: 0.0
- Max Kidney Histology Score [1]: 0 (SQS 0=no significant change (overall score, <1))

SMILES: CC[C@@H]1NC(=O)[C@@H](CC(C)C)NC(=O)[C@H](CCN)NC(=O)[C@@H](NC(=O)[C@H](CN)NC(=O)[C@@H](NC(=O)[C@H](CCN)NC(=O)c2cccc(Cl)c2Cl)[C@@H](C)O)CCNC(=O)[C@H]([C@@H](C)O)NC(=O)[C@H](CCN)NC(=O)[C@H](CCN)NC1=O [Compound 90] ({Benzoyl(2,3-Cl2)}-[Dab]T[Dap][Dab][Dab][dL][Abu][Dab][Dab]T; lactam 4-C)
- Minimum inhibitory concentration, Ab A ATCC 17978 (Acinetobacter baumannii): 1 µg/mL (≈ 0.862 µM)
- Minimum inhibitory concentration, Ab ATCC 19606 (Acinetobacter baumannii): 2 µg/mL (≈ 1.72 µM)
- Minimum inhibitory concentration, Ab FADDI-AB034 (Acinetobacter baumannii): 8 µg/mL (≈ 6.9 µM)
- Minimum inhibitory concentration, Ec FADDI-EC001 (Enterobacter cloacae): 0.5 µg/mL (≈ 0.431 µM)
- Minimum inhibitory concentration, Ec FADDI-EC003 (Enterobacter cloacae): 8 µg/mL (≈ 6.9 µM)
- Minimum inhibitory concentration, Ec FADDI-EC006 (Enterobacter cloacae): 0.25 µg/mL (≈ 0.215 µM)
- Minimum inhibitory concentration, Pa ATCC 27853 (Pseudomonas aeruginosa): 0.5 µg/mL (≈ 0.431 µM)
- Minimum inhibitory concentration, Pa FADDI-PA022 (Pseudomonas aeruginosa): 2 µg/mL (≈ 1.72 µM)
- Minimum inhibitory concentration, Pa FADDI-PA025 (Pseudomonas aeruginosa): 2 µg/mL (≈ 1.72 µM)
- Max Overall Kidney Histology Score [1]: 0.0
- Max Kidney Histology Score [1]: 0 (SQS 0=no significant change (overall score, <1))

SMILES: CC[C@@H]1NC(=O)[C@@H](CC(C)C)NC(=O)[C@H](CCN)NC(=O)[C@@H](NC(=O)[C@H](CN)NC(=O)[C@@H](NC(=O)[C@H](CCN)NC(=O)c2c(Cl)cc(Cl)cc2Cl)[C@@H](C)O)CCNC(=O)[C@H]([C@@H](C)O)NC(=O)[C@H](CCN)NC(=O)[C@H](CCN)NC1=O [Compound 95] (X23-[Dab]T[Dap][Dab][Dab][dL][Abu][Dab][Dab]T; lactam 4-C)
- Minimum inhibitory concentration, Ab A ATCC 17978 (Acinetobacter baumannii): 0.25 µg/mL (≈ 0.209 µM)
- Minimum inhibitory concentration, Ab ATCC 19606 (Acinetobacter baumannii): 0.25 µg/mL (≈ 0.209 µM)
- Minimum inhibitory concentration, Ab FADDI-AB034 (Acinetobacter baumannii): 0.25 µg/mL (≈ 0.209 µM)
- Minimum inhibitory concentration, Ec FADDI-EC001 (Enterobacter cloacae): <0.125 µg/mL
- Minimum inhibitory concentration, Ec FADDI-EC003 (Enterobacter cloacae): 0.25 µg/mL (≈ 0.209 µM)
- Minimum inhibitory concentration, Ec FADDI-EC006 (Enterobacter cloacae): 1 µg/mL (≈ 0.837 µM)
- Minimum inhibitory concentration, Pa ATCC 27853 (Pseudomonas aeruginosa): 2 µg/mL (≈ 1.67 µM)
- Minimum inhibitory concentration, Pa FADDI-PA022 (Pseudomonas aeruginosa): 4 µg/mL (≈ 3.35 µM)
- Minimum inhibitory concentration, Pa FADDI-PA025 (Pseudomonas aeruginosa): 2 µg/mL (≈ 1.67 µM)
- Max Overall Kidney Histology Score [1]: 0.0
- Max Kidney Histology Score [1]: 0 (SQS 0=no significant change (overall score, <1))

SMILES: CC[C@H](C)CCCCC(=O)N[C@@H](CCN)C(=O)N[C@H](C(=O)N[C@H](CO)C(=O)N[C@H]1CCNC(=O)[C@H]([C@@H](C)O)NC(=O)[C@H](CCN)NC(=O)[C@H](CCN)NC(=O)[C@H]([C@@H](C)O)NC(=O)[C@@H](CC(C)C)NC(=O)[C@H](CCN)NC1=O)[C@@H](C)O [Compound 150, polymyxin D1] (X1-[Dab]T[dS][Dab][Dab][dL]T[Dab][Dab]T; lactam 4-C)
- MIC (Acinetobacter baumannii): 0.25 µg/mL (≈ 0.218 µM)
- Minimum inhibitory concentration (MIC), Ab ATCC 17978 (Acinetobacter baumannii): 0.25 µg/mL (≈ 0.218 µM)
- Minimum inhibitory concentration (MIC), Ab ATCC 19606 (Acinetobacter baumannii): 0.25 µg/mL (≈ 0.218 µM)
- Minimum inhibitory concentration (MIC), Ab FADDI-AB034 (Acinetobacter baumannii): 0.25 µg/mL (≈ 0.218 µM)
- Minimum inhibitory concentration (MIC), Ec FADDI-EC001 (Enterobacter cloacae): 0.5 µg/mL (≈ 0.437 µM)
- Minimum inhibitory concentration (MIC), Ec FADDI-EC003 (Enterobacter cloacae): 0.5 µg/mL (≈ 0.437 µM)
- Minimum inhibitory concentration (MIC), Ec FADDI-EC006 (Enterobacter cloacae): 0.5 µg/mL (≈ 0.437 µM)
- MIC (Klebsiella pneumoniae): 0.5 µg/mL (≈ 0.437 µM)
- MIC (Pseudomonas aeruginosa): 4 µg/mL (≈ 3.5 µM)
- Minimum inhibitory concentration (MIC), Pa ATCC 27853 (Pseudomonas aeruginosa): 4 µg/mL (≈ 3.5 µM)
- Minimum inhibitory concentration (MIC), Pa FADDI-PA022 (Pseudomonas aeruginosa): 4 µg/mL (≈ 3.5 µM)
- Minimum inhibitory concentration (MIC), Pa FADDI-PA025 (Pseudomonas aeruginosa): >32 µg/mL
- Δ log (Treated-Control at 4 h) (A. baumannii ATCC 19606): −1.46 log10 CFU/mL
- Δ log (Treated-Control at 4 h) [2]: −3.77 log10 CFU/mL
- Δ log (Treated-Control at 4 h) (P. aeruginosa ATCC 27853): −0.29 log10 CFU/mL
